Assay: RP, Waters ACQUITY UPLC BEH C18, 100 × 2.1 mm, 1.7 µm, 0.3 mL/min, estimated dead time 0.73 min; A: water + 0.1% formic acid, pH 3; B: methanol + 0.1% formic acid, pH 3; gradient (min/%B) 0/10 14/90 16/90 18/10
Details: stereoisomer not certain

| Compound | LC retention time [min] |
| --- | --- |
| CN(C)C1C(=O)C(C(N)=O)=C(O)C2(O)C(=O)C3=C(O)c4c(O)cccc4C(C)(O)C3CC12 (configuration not stated) [Tetracycline] | 4.37 |
| CC(C)=CC1C(C(=O)OCN2C(=O)C3=C(CCCC3)C2=O)C1(C)C (configuration not stated) [Tetramethrin] | 12.8 |
| N#CN=C1SCCN1Cc1ccc(Cl)nc1 [Thiacloprid] | 6.28 |
| CN1COCN(Cc2cnc(Cl)s2)C1=N[N+](=O)[O-] [Thiamethoxam] | 3.27 |
| CS(=O)(=O)c1ccc(C(O)C(CO)NC(=O)C(Cl)Cl)cc1 (configuration not stated) [Thiamphenicol] | 3.6 |
| O=C(Nc1ccccc1)Nc1cnns1 [Thidiazuron] | 7.36 |
| COC(=O)c1sccc1S(=O)(=O)NC(=O)Nc1nc(C)nc(OC)n1 [Thifensulfuron methyl] | 5.04 |
| CCN(CC)C(=O)SCc1ccc(Cl)cc1 [Thiobencarb] | 12.9 |
| COC(=O)NC(=S)Nc1ccccc1NC(=S)NC(=O)OC [Thiophanate-methyl] | 7.2 |
| C=CC1(C)CC(OC(=O)CSCCN(CC)CC)C2(C)C(C)CCC3(CCC(=O)C32)C(C)C1O (configuration not stated) [Tiamulin] | 9.22 |
| Clc1ccccc1CN1CCc2sccc2C1 [Ticlopidine] | 12.1 |
| CCC1OC(=O)CC(O)C(C)C(OC2OC(C)C(O)C(N(C)C)C2O)C(CCN2CC(C)CC(C)C2)CC(C)C(=O)C=CC(C)=CC1COC1OC(C)C(O)C(OC)C1OC (configuration not stated) [Tilmicosin] | 8.78 |
| CCCCNC(=O)NS(=O)(=O)c1ccc(C)cc1 [Tolbutamide] | 8.33 |
| COP(=S)(OC)Oc1c(Cl)cc(C)cc1Cl [Tolclofos-methyl] | 12.1 |
| Cc1c(Cl)cccc1Nc1ccccc1C(=O)O [Tolfenamic acid] | 11 |
| Cc1ccc(N(SC(F)(Cl)Cl)S(=O)(=O)N(C)C)cc1 [Tolyfluanid] | 12.4 |
| CC(C)N(C(=O)SCC(Cl)=C(Cl)Cl)C(C)C [Tri-allate] | 13.3 |
| CC(C)(C)C(=O)C(Oc1ccc(Cl)cc1)n1cncn1 (configuration not stated) [Triadimefon] | 10.6 |
| CC(C)(C)C(O)C(Oc1ccc(Cl)cc1)n1cncn1 (configuration not stated) [Triadimenol] | 11.3 |
| CC1(C)OC2CC3C4CCC5=CC(=O)C=CC5(C)C4(F)C(O)CC3(C)C2(C(=O)CO)O1 (configuration not stated) [Triamcinolone acetonide] | 9.42 |
| CC12C=CC(=O)C=C1CCC1C3CC(O)C(O)(C(=O)CO)C3(C)CC(O)C12F (configuration not stated) [Triamcinolone] | 6.95 |

| Compound | LC retention time [min] |
| --- | --- |
| COc1nc(C)nc(NC(=O)NS(=O)(=O)c2ccccc2OCCCl)n1 [Triasulfuron] | 6.67 |
| [O-][n+]1nc(-n2ccnc2)nc2ccc(Cl)cc21 [Triazoxide] | 8.54 |
| COC(=O)c1ccccc1S(=O)(=O)NC(=O)N(C)c1nc(C)nc(OC)n1 [Tribenuron methyl] | 7.52 |
| COP(=O)(OC)C(O)C(Cl)(Cl)Cl (configuration not stated) [Trichlorfon] | 4.7 |
| Cc1cccc2sc3nncn3c12 [Tricyclazole] | 6.05 |
| CCCOCC(=Nc1ccc(Cl)cc1C(F)(F)F)n1ccnc1 [Triflumizole] | 12.7 |
| O=C(NC(=O)c1ccccc1Cl)Nc1ccc(OC(F)(F)F)cc1 [Triflumuron] | 12 |
| CN(C)CCCN1c2ccccc2Sc2ccc(C(F)(F)F)cc21 [Triflupromazine] | 10.6 |
| COC(=O)c1cccc(C)c1S(=O)(=O)NC(=O)Nc1nc(OCC(F)(F)F)nc(N(C)C)n1 [Triflusulfuron-methyl] | 9.27 |
| CCOC(=O)C1CC(=O)C(=C(O)C2CC2)C(=O)C1 (configuration not stated) [Trinexapac-ethyl] | 7.6 |
| Cc1ccc(C(=CCN2CCCC2)c2ccccn2)cc1 [Triprolidine] | 7.64 |
| CC1(C)CCC(=Cc2ccc(Cl)cc2)C1(O)Cn1cncn1 (configuration not stated) [Triticonazole] | 11 |
| CC(C)(C)NCC(O)c1ccccc1Cl (configuration not stated) [Tulobuterol] | 5.6 |
| COc1ccc(C(CN(C)C)C2(O)CCCCC2)cc1 (configuration not stated) [Venlafaxine] | 7.23 |
| CCCSC(=O)N(CCC)CCC [Vernolat] | 12.2 |
| COCC1OC(=O)c2coc3c2C1(C)C1=C(C3=O)C2CCC(=O)C2(C)CC1OC(C)=O (configuration not stated) [Wortmannin] | 7.75 |
| Cc1cccc(C)c1NC1=NCCCS1 [Xylazine] | 4.92 |
| CC1CCCC(=O)CCCC=Cc2cc(O)cc(O)c2C(=O)O1 (configuration not stated) [Zearalenone] | 10.5 |
| CC1CCCC(O)CCCCCc2cc(O)cc(O)c2C(=O)O1 (configuration not stated) [Zeranol (Alfa Zearalanol. a-ZAL)] | 10.7 |
| CCCCCCCCC=CC1CCC(=O)O1 (configuration not stated) [japonilure] | 9.82 |
| Clc1cccc(N2CCNCC2)c1 [mCCP] | 5.23 |

From the RepoRT retention time repository (doi:10.1016/j.scitotenv.2015.08.078)
